Values after ≈ are worked out from the molar mass of the structure shown. Like-named read-outs stand apart in the source and are kept apart here.

A short description of series [1]: Solubility of oligofurans in organic solvent. The class given is physicochemical. The settings on record: for solubility: in chloroform (solvent stated).
Series [2] is described as follows: Thermogravimetric analysis (TGA) / stability in air. Format: physicochemical. Conditions: stable in air in the absence of light, FIG. 3. The method, then:
FIG. 3 depicts Thermogravimetric Analysis (TGA) of oligofurans (a) 5F-8F and (b) 9F under N2, rate: 5° C./min.
FIG. 11 depicts thermogravimetric analysis (TGA) of oligofurans 6F, 8F and DH-6F under N2. Rate: 5° C./min.

`c1coc(-c2ccc(-c3ccc(-c4ccc(-c5ccc(-c6ccco6)o5)o4)o3)o2)c1` [6F, α-sexifuran]: in series [1] (in chloroform), the “solubility of 6F relative to corresponding 6T” value is “over 10 times”. In series [1] (organic solvent or mixture, read-out: solubility), the solubility stood at 700 µg/mL (≈ 1760 µM). This compound also gave a decomposition temperature in series [2] of 303 °C.

Turning to `c1csc(-c2ccc(-c3ccc(-c4ccc(-c5ccc(-c6cccs6)s5)s4)s3)s2)c1` [6T, α-sexithiophene, reference compound], the solubility in series [1] was less than 50 µg/mL.

For `c1coc(-c2ccc(-c3ccc(-c4ccc(-c5ccc(-c6ccc(-c7ccc(-c8ccc(-c9ccco9)o8)o7)o6)o5)o4)o3)o2)c1` [9F, α-nonafuran], the “solubility in warm acetone” value in series [1] (warm acetone, Soxhlet extraction) is listed as “slightly soluble”.

Broadly, the solubility is the dissolved amount per volume that the medium holds.

The record behind these values is patent publication US8921582B2, “Oligo- and polyfurans, preparation and uses thereof” (Yeda Research and Development Co. Ltd., priority 2009, dated 2014).
